Experimental data taken from publication PMC8480901 (PLoS ONE, 2021).
“And” between values parts separate entries of the source, which are not always exact repeats. Identical values can stand only once.

System: human PBMCs
Assay: LPS-induced cytokine and chemokine levels in human PBMC supernatant (Luminex, ELISA)
Type: cell-based
Settings: LPS-stimulated PBMC supernatant; for CCl2, Mean / CXCL1, Mean / CXCL2, Mean / MMP9, Mean: sample size 2; for CCl2, individual value / CXCL1, individual value / CXCL2, individual value / MMP9, individual value: single replicate

In the case of `C[C@@H]1C[C@H]2[C@@H]3CCC4=CC(=O)C=C[C@]4(C)[C@@]3(F)[C@@H](O)C[C@]2(C)[C@@]1(O)C(=O)CO` [Dexamethasone], the “CCl2, % reduction” value (0.0003 µM) is reported as -4.68%, the “CXCL1 % reduction” value (0.0003 µM) is reported as -4% and the “CXCL2 % reduction” value (0.0003 µM) is reported as 4%. The “MMP9 % reduction” value (0.0003 µM) was 3.74%, the “CCl2, Mean” value (0.0003 µM) was 1323 pg/mL and the “CXCL1, Mean” value (0.0003 µM) was 6192 pg/mL. For the same molecule, the “CXCL2, Mean” value (0.0003 µM) was 4849 pg/mL, the “MMP9, Mean” value (0.0003 µM) was 2934 pg/mL and the “CCl2, individual value” (0.0003 µM) was 1383 pg/mL and 1264 pg/mL. The “CXCL1, individual value” (0.0003 µM) was 6146 pg/mL and 6238 pg/mL, the “CXCL2, individual value” (0.0003 µM) was 4762 pg/mL and 4936 pg/mL and the “MMP9, individual value” (0.0003 µM) was 2852 pg/mL and 3016 pg/mL. For the same molecule, the “CCl2, % reduction” value (0.001 µM) was 0.423%, the “CXCL1 % reduction” value (0.001 µM) was 1.28% and the “CXCL2 % reduction” value (0.001 µM) was 3%. The “MMP9 % reduction” value (0.001 µM) was 7%, the “CCl2, Mean” value (0.001 µM) was 1261 pg/mL and the “CXCL1, Mean” value (0.001 µM) was 5877 pg/mL. For the same molecule, the “CXCL2, Mean” value (0.001 µM) was 4905 pg/mL, the “MMP9, Mean” value (0.001 µM) was 2887 pg/mL and the “CCl2, individual value” (0.001 µM) was 1275 pg/mL and 1246 pg/mL. For the same molecule, the “CXCL1, individual value” (0.001 µM) was 5806 pg/mL and 5947 pg/mL, the “CXCL2, individual value” (0.001 µM) was 4830 pg/mL and 4980 pg/mL and the “MMP9, individual value” (0.001 µM) was 2894 pg/mL and 2879 pg/mL. For the same molecule, the “CCl2, % reduction” value (0.003 µM) was 17%, the “CXCL1 % reduction” value (0.003 µM) was 6% and the “CXCL2 % reduction” value (0.003 µM) was 4%. For the same molecule, the “MMP9 % reduction” value (0.003 µM) was 16%, the “CCl2, Mean” value (0.003 µM) was 1056 pg/mL and the “CXCL1, Mean” value (0.003 µM) was 5588 pg/mL. For the same molecule, the “CXCL2, Mean” value (0.003 µM) was 4851 pg/mL, the “MMP9, Mean” value (0.003 µM) was 2739 pg/mL and the “CCl2, individual value” (0.003 µM) was 1044 pg/mL and 1067 pg/mL. For the same molecule, the “CXCL1, individual value” (0.003 µM) was 5506 pg/mL and 5671 pg/mL, the “CXCL2, individual value” (0.003 µM) was 4888 pg/mL and 4814 pg/mL and the “MMP9, individual value” (0.003 µM) was 2727 pg/mL and 2751 pg/mL. The “CCl2, % reduction” value (0.01 µM) was 33%, the “CXCL1 % reduction” value (0.01 µM) was 16% and the “CXCL2 % reduction” value (0.01 µM) was 17%. The “MMP9 % reduction” value (0.01 µM) was 23%, the “CCl2, Mean” value (0.01 µM) was 860 pg/mL and the “CXCL1, Mean” value (0.01 µM) was 5032 pg/mL. For the same molecule, the “CXCL2, Mean” value (0.01 µM) was 4217 pg/mL, the “MMP9, Mean” value (0.01 µM) was 2621 pg/mL and the “CCl2, individual value” (0.01 µM) was 863 pg/mL and 858 pg/mL. For the same molecule, the “CXCL1, individual value” (0.01 µM) was 4889 pg/mL and 5174 pg/mL, the “CXCL2, individual value” (0.01 µM) was 4342 pg/mL and 4092 pg/mL and the “MMP9, individual value” (0.01 µM) was 2587 pg/mL and 2655 pg/mL. The “CCl2, % reduction” value (0.03 µM) was 46%, the “CXCL1 % reduction” value (0.03 µM) was 25% and the “CXCL2 % reduction” value (0.03 µM) was 30%. For the same molecule, the “MMP9 % reduction” value (0.03 µM) was 24%, the “CCl2, Mean” value (0.03 µM) was 701 pg/mL and the “CXCL1, Mean” value (0.03 µM) was 4474 pg/mL. For the same molecule, the “CXCL2, Mean” value (0.03 µM) was 3565 pg/mL, the “MMP9, Mean” value (0.03 µM) was 2601 pg/mL and the “CCl2, individual value” (0.03 µM) was 757 pg/mL and 644 pg/mL. The “CXCL1, individual value” (0.03 µM) was 4471 pg/mL and 4477 pg/mL, the “CXCL2, individual value” (0.03 µM) was 3377 pg/mL and 3753 pg/mL and the “MMP9, individual value” (0.03 µM) was 2572 pg/mL and 2630 pg/mL. The “CCl2, % reduction” value (0.1 µM) was 56%, the “CXCL1 % reduction” value (0.1 µM) was 35% and the “CXCL2 % reduction” value (0.1 µM) was 40%. For the same molecule, the “MMP9 % reduction” value (0.1 µM) was 39%, the “CCl2, Mean” value (0.1 µM) was 584 pg/mL and the “CXCL1, Mean” value (0.1 µM) was 3861 pg/mL. The “CXCL2, Mean” value (0.1 µM) was 3024 pg/mL, the “MMP9, Mean” value (0.1 µM) was 2364 pg/mL and the “CCl2, individual value” (0.1 µM) was 488 pg/mL and 679 pg/mL. For the same molecule, the “CXCL1, individual value” (0.1 µM) was 3279 pg/mL and 4443 pg/mL, the “CXCL2, individual value” (0.1 µM) was 2644 pg/mL and 3404 pg/mL and the “MMP9, individual value” (0.1 µM) was 2111 pg/mL and 2616 pg/mL. For the same molecule, the “CCl2, % reduction” value (0.3 µM) was 55%, the “CXCL1 % reduction” value (0.3 µM) was 32% and the “CXCL2 % reduction” value (0.3 µM) was 49%. The “MMP9 % reduction” value (0.3 µM) was 26%, the “CCl2, Mean” value (0.3 µM) was 591 pg/mL and the “CXCL1, Mean” value (0.3 µM) was 4087 pg/mL. The “CXCL2, Mean” value (0.3 µM) was 2585 pg/mL, the “MMP9, Mean” value (0.3 µM) was 2569 pg/mL and the “CCl2, individual value” (0.3 µM) was 580 pg/mL and 603 pg/mL. For the same molecule, the “CXCL1, individual value” (0.3 µM) was 3996 pg/mL and 4178 pg/mL, the “CXCL2, individual value” (0.3 µM) was 2570 pg/mL and 2599 pg/mL and the “MMP9, individual value” (0.3 µM) was 2679 pg/mL and 2458 pg/mL. For the same molecule, the “CCl2, % reduction” value (1 µM) was 58%, the “CXCL1 % reduction” value (1 µM) was 32% and the “CXCL2 % reduction” value (1 µM) was 48%. For the same molecule, the “MMP9 % reduction” value (1 µM) was 46%, the “CCl2, Mean” value (1 µM) was 551 pg/mL and the “CXCL1, Mean” value (1 µM) was 4042 pg/mL. For the same molecule, the “CXCL2, Mean” value (1 µM) was 2659 pg/mL, the “MMP9, Mean” value (1 µM) was 2244 pg/mL and the “CCl2, individual value” (1 µM) was 591 pg/mL and 510 pg/mL. The “CXCL1, individual value” (1 µM) was 4057 pg/mL and 4026 pg/mL, the “CXCL2, individual value” (1 µM) was 2573 pg/mL and 2746 pg/mL and the “MMP9, individual value” (1 µM) was 2290 pg/mL and 2198 pg/mL.
